In ChEMBL document CHEMBL4602617, “Discovery and optimization of heteroaryl piperazines as potent and selective PI3Kδ inhibitors” (Bioorg Med Chem Lett, 2020) one finds IC50 and inhibition data, which are given here for one compound.

As usually defined, the IC50 is the concentration that gives 50% inhibition. As usually defined, the inhibition is the drop in the measured response relative to a control, in per cent.

Where only a bound is given, the exact number is not on record here.

Test [1] has as its target Tyrosine-protein kinase TXK (Homo sapiens, UniProt P42681). In words: Inhibition of recombinant human GST-tagged TXK catalytic domain (260 to 527 residues) expressed in baculovirus expression system using tyrosine-6 peptide as substrate incubated for 60 mins in presence of ATP by Z'-LYTE assay.
Test [2] has as its target Cytoplasmic tyrosine-protein kinase BMX (Homo sapiens, UniProt P51813). The test can be described thus: Inhibition of recombinant full length human His-tagged BMX cytoplasmic domain expressed in baculovirus expression system using tyrosine-1 peptide as substrate incubated for 60 mins in presence of ATP by Z'-LYTE assay.
For test [3], the target named is G protein-coupled receptor kinase 3 (Homo sapiens, UniProt P35626). In words: Inhibition of recombinant full length human GST-tagged GRK3 expressed in baculovirus expression system using serine/threonine-16 peptide as substrate incubated for 60 mins in presence of ATP by Z'-LYTE assay.
In test [4] the target is Mitogen-activated protein kinase 8 (Homo sapiens, UniProt P45983). The test can be described thus: Inhibition of recombinant full length human His-tagged JNK1alpha1 expressed in baculovirus expression system using serine/threonine-4 peptide as substrate incubated for 60 mins in presence of ATP by Z'-LYTE assay.
Test [5] deals with Tyrosine-protein kinase FRK (Homo sapiens, UniProt P42685). In words: Inhibition of recombinant full length GST-tagged human FRK expressed in baculovirus expression system using tyrosine 1 as substrate after 1 hr in presence of ATP by ZYLTE assay.
Chain of Tyrosine-protein kinase FRK (P42685 whole entry, the tested form may be a part): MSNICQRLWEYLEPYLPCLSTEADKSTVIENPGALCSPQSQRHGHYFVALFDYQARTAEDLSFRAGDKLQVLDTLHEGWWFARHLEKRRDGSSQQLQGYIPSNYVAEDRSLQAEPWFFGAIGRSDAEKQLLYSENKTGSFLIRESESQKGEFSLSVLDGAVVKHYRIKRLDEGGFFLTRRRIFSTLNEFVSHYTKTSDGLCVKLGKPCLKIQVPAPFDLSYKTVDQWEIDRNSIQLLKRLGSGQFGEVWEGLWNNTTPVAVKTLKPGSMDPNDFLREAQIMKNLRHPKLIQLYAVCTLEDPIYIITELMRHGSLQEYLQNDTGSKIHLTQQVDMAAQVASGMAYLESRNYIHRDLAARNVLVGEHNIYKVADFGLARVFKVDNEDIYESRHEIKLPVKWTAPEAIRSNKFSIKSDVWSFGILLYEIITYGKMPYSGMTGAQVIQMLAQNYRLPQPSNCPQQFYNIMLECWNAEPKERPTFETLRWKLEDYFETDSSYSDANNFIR
Test [6] addresses Epidermal growth factor receptor (Homo sapiens, UniProt P00533, T790M). In words: Inhibition of human recombinant GST-tagged EGFR T790M mutant cytoplasmic domain expressed in baculovirus expression system using tyrosine 4 peptide as substrate after 60 mins in presence of ATP FRET based Z'-LYTE assay.
Test [7] addresses Inhibitor of nuclear factor kappa-B kinase subunit epsilon (Homo sapiens, UniProt Q14164). The test can be described thus: Inhibition of recombinant human full-length GST-tagged IKBKE expressed in baculovirus expression system using Ser/Thr 11 peptide as substrate measured after 1 hr in presence of ATP by Z'-lyte assay.
In test [8] the target is Sodium-dependent serotonin transporter (Homo sapiens) (UniProt P31645). The test can be described thus: Displacement of [3H]paroxetine from full length recombinant human […] expressed in HEK293 cells at 10 uM after 60 mins by radiometric scintillation analysis relative to control. It counts as cell-based. (In a radioligand displacement assay an active substance lowers the binding of a labelled ligand.)
Chain of Sodium-dependent serotonin transporter (Homo sapiens) (P31645 whole entry, looked up): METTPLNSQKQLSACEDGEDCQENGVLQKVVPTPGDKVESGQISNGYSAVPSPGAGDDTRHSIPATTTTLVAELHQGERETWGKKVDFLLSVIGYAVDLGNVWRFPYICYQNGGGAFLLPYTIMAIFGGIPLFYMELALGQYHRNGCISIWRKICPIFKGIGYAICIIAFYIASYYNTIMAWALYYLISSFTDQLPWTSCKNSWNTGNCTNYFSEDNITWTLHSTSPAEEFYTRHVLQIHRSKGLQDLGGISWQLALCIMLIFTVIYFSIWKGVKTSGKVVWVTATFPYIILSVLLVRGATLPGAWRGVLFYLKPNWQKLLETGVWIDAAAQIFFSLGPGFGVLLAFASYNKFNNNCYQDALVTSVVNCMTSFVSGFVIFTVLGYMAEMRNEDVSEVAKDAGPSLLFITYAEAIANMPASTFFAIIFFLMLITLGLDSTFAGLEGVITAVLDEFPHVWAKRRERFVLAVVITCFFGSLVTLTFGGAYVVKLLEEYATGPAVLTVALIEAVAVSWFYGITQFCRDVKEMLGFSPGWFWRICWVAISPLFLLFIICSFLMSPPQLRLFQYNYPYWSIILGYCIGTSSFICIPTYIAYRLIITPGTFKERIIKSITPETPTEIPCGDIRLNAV

The target of test [9] is D(1A) dopamine receptor (Homo sapiens) (UniProt P21728). In words: Displacement of [3H]SCH-23390 from recombinant full length human recombinant dopamine D1 receptor expressed in CHO cells at 10 uM measured after 120 mins by radiometric scintillation analysis relative to control. It counts as cell-based.
Chain of D(1A) dopamine receptor (Homo sapiens) (P21728 whole entry): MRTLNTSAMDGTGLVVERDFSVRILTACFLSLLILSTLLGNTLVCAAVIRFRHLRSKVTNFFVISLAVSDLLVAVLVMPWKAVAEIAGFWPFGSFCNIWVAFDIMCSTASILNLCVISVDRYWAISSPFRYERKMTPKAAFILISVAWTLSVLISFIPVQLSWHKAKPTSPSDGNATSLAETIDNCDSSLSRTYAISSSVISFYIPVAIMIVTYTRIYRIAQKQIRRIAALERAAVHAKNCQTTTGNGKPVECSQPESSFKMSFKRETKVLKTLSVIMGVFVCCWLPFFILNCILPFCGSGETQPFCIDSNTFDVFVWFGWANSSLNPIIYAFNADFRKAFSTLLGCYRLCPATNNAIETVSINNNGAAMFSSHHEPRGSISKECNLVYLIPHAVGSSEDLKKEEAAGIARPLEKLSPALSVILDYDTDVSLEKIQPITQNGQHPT
Test [10] deals with Prostaglandin E2 receptor EP1 subtype (Homo sapiens) (UniProt P34995). The test can be described thus: Displacement of [3H]prostaglandin E2 from full length human recombinant EP1 receptor expressed in HEK293 cells at 10 uM measured after 60 mins by radiometric scintillation analysis relative to control. It counts as cell-based.
Chain of Prostaglandin E2 receptor EP1 subtype (Homo sapiens) (P34995 whole entry): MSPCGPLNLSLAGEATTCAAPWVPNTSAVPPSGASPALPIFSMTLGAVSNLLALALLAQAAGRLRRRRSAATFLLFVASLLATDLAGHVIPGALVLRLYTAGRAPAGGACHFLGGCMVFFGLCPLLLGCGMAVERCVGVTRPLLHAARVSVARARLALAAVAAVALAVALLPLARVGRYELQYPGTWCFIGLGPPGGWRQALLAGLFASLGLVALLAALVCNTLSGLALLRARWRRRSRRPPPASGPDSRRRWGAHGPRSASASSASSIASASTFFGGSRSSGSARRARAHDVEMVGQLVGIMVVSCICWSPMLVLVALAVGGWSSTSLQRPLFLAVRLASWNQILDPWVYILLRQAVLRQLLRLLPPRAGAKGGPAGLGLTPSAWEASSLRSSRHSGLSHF
Test [11] deals with Cannabinoid receptor 1 (Homo sapiens) (UniProt P21554). In words: Inhibition of human CB1 receptor at 10 uM relative to control.
Chain of Cannabinoid receptor 1 (Homo sapiens) (P21554 whole entry): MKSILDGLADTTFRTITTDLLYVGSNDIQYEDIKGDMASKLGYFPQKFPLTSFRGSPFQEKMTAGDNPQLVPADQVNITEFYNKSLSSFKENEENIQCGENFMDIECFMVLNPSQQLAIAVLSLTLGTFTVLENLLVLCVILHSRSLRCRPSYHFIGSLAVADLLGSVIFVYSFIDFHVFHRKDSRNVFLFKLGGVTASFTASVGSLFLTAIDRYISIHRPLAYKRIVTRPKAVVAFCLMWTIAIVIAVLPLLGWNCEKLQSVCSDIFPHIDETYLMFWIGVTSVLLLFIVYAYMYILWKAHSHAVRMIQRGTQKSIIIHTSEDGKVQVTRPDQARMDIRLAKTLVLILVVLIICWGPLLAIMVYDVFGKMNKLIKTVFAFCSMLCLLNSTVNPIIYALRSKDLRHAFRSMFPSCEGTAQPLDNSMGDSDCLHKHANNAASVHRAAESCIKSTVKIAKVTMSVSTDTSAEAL
In test [12] the target is C-X-C chemokine receptor type 2 (Homo sapiens) (UniProt P25025). The test can be described thus: Displacement of [125I]IL-8 from recombinant full length human CXCR2 receptor expressed in CHOK1 cells at 10 uM measured after 60 mins by radiometric scintillation analysis relative to control. It counts as cell-based. The note with it: CHO-K1.
Chain of C-X-C chemokine receptor type 2 (Homo sapiens) (P25025 whole entry): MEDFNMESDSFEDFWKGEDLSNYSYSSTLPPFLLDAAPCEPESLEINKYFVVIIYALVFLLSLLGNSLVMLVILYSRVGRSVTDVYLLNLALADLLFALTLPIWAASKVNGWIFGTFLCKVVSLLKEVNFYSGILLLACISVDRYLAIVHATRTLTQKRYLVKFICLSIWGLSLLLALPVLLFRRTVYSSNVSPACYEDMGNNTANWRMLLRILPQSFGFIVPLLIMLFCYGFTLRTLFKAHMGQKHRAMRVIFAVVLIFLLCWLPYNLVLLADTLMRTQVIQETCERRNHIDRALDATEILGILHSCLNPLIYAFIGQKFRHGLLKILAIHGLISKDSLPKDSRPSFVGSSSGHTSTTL
The target of test [13] is Kappa-type opioid receptor (Homo sapiens) (UniProt P41145). In words: Displacement of [3H]diprenorphine from full length human recombinant KOP receptor expressed in HEK293 cells at 10 uM measured after 60 mins by radiometric scintillation analysis relative to control. It counts as cell-based.
For test [14], the target named is Mitogen-activated protein kinase 14 (Homo sapiens, UniProt Q16539). The test can be described thus: Inhibition of recombinant full length GST-tagged human MAPK14 expressed in Escherichia coli using Ser/Thr 04 as substrate after 1 hr in presence of ATP by Z'LYTE assay.
Chain of Mitogen-activated protein kinase 14 (Q16539 whole entry): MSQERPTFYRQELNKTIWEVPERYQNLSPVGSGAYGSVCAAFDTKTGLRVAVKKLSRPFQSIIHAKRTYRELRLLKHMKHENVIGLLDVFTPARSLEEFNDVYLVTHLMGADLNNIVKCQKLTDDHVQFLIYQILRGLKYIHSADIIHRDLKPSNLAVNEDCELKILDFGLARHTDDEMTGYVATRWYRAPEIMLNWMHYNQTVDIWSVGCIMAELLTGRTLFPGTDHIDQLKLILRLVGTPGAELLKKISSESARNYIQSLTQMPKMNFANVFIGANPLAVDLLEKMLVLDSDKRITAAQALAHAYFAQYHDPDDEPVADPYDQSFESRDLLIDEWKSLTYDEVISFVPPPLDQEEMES
A further test is filed under the species Homo sapiens. The test can be described thus: Inhibition of human nicotinic acetylcholine receptor at 10 uM relative to control.
Test [15] deals with Fibroblast growth factor receptor 2 (Homo sapiens, UniProt P21802). In words: Inhibition of recombinant His-tagged human FGFR2 (403 to 822 residues) cytoplasmic domain expressed in baculovirus expression system using Tyr 04 peptide as substrate after 1 hr in presence of ATP by Z'-LYTE assay.
Chain of Fibroblast growth factor receptor 2 (P21802 whole entry, the tested form may be a part): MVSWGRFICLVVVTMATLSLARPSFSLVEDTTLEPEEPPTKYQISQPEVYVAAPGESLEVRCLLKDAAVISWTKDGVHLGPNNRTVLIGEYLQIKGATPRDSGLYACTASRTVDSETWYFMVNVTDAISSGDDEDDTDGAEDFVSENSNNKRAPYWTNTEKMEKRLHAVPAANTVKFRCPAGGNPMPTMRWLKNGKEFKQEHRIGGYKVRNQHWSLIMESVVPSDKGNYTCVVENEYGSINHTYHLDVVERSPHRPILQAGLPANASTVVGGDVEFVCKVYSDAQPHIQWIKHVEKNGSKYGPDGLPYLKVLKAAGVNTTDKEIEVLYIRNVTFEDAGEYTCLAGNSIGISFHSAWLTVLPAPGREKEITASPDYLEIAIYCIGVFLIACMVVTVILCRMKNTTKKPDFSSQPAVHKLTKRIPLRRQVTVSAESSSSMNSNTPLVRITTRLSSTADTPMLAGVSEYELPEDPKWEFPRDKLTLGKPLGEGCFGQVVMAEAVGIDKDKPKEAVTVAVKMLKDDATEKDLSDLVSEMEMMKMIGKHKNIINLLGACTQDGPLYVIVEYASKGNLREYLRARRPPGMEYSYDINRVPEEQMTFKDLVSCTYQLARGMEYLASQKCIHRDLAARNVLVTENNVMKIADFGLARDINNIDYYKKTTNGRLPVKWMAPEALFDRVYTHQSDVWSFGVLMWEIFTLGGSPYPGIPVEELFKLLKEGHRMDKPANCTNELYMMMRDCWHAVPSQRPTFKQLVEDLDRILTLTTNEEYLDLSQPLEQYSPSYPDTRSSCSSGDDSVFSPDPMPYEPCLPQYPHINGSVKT
The target in test [16] is Epidermal growth factor receptor (Homo sapiens, UniProt P00533, L861Q). In words: Inhibition of human recombinant GST-tagged EGFR L861Q mutant cytoplasmic domain expressed in baculovirus expression system using tyrosine 4 peptide as substrate after 60 mins in presence of ATP FRET based Z'-LYTE assay.
For a further test, the species on record is Rattus norvegicus. The test can be described thus: Inhibition of rat P2Y receptor at 10 uM relative to control.
The target in test [17] is T1, Phosphatidylinositol 4,5-bisphosphate 3-kinase catalytic subunit delta isoform (Homo sapiens, UniProt O00329).
T1 sequence (O00329 whole entry): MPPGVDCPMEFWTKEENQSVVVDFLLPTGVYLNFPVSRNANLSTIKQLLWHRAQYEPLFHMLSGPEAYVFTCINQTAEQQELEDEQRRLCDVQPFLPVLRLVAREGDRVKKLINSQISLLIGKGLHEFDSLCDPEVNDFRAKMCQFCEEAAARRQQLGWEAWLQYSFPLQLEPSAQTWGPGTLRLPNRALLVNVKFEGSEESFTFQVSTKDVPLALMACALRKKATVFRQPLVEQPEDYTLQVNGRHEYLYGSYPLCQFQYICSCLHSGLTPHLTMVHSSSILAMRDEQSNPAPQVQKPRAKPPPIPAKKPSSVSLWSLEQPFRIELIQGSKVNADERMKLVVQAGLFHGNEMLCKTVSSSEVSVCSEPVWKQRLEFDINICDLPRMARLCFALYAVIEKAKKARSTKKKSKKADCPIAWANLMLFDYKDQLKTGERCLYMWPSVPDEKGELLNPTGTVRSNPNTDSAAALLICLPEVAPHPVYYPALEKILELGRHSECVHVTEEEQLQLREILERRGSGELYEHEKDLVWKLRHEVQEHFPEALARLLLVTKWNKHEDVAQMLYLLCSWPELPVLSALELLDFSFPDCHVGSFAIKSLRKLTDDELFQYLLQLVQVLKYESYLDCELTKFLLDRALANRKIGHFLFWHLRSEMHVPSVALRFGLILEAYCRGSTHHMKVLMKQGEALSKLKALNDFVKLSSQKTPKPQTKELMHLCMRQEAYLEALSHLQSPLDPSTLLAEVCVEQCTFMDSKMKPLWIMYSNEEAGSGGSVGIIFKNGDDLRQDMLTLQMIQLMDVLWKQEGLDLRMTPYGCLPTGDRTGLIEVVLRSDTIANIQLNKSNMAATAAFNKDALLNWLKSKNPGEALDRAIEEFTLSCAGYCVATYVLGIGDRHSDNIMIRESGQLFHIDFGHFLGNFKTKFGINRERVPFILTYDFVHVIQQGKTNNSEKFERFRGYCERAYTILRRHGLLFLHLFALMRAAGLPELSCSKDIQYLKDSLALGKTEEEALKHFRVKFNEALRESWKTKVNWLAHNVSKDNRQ
In words: Inhibition of PI3K delta (unknown origin) by Adapta assay.

Chain of Inhibitor of nuclear factor kappa-B kinase subunit epsilon (Q14164 whole entry): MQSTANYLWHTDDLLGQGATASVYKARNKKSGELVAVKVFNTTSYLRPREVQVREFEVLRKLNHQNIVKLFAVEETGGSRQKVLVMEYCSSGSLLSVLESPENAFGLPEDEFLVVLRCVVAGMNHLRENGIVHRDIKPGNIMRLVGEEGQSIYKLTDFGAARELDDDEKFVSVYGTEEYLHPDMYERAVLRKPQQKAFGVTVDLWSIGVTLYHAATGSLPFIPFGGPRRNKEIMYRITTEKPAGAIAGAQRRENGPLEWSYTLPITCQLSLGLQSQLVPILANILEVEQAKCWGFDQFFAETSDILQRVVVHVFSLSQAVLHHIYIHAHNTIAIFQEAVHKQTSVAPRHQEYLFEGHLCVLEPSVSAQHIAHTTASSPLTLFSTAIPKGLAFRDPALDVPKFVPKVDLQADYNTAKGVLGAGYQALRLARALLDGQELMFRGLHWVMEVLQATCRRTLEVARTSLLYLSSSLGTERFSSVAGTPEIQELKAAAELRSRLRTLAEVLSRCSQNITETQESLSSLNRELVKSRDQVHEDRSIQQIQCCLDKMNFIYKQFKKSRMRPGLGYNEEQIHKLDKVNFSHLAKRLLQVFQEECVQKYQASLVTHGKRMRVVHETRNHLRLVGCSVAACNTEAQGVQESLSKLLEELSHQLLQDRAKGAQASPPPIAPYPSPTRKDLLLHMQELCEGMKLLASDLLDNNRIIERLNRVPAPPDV

On to `C[C@@H]1C[C@H]1C(=O)N1CCN(c2cnc(C#N)c(-c3cnn(C)c3)n2)C[C@H]1C`, for which the IC50 in test [1], in test [2], in test [3], in test [4], in [5] and in [6] was greater than 100 µM each time. Moreover, the IC50 in [7] was greater than 100 µM; in test [14], greater than 100 µM; in [15], greater than 100 µM; in test [16] it was greater than 100 µM; in test [17], less than 0.01 µM. Moreover, the inhibition was 0% in [8]; 2% in test [9]; 11% in test [10]; -1% in [11]; 5% in test [12]; 5% in test [13]. Also, the results for the inhibition in the test listed under Homo sapiens and in the test filed under Rattus norvegicus were 10% and 34%, respectively.
